For data set [1], the system named is Pseudomonas fluorescens NRRL-B-18296. Nature of the data set: Degradation of various chloroaliphatic carbon sources in minimal medium broth (Example 3). Particulars: 100 ppm; mmo with 0.5% glucose, 0.005% yeast extract, 0.4% potassium nitrate; 10^6 bacteria/ml; 25° C., 24 hours. The data set is classed as cell-based. Here is the method:
(§1) In Examples 3 to 6, compounds of interest were quantitated using a Perkin-Elmer (model 8500) gas chromatograph equipped with an HS-6 headspace analyzer (Perkin-Elmer, Norwalk, CT). The instrument was fitted with a 6 foot stainless steel Sp2100 column (Supelco, Bellefonte, PA). Carrier gas flow rate (helium) was 20 ml/min. with an isothermal column temperature of 60° C. Injector and detector temperatures were 150° C. and 200° C. respectively.
(§2) All sample vials were equilibrated at 80° C. in the headspace analyzer for 10 minutes. Vial pressurization times of 30 seconds and injection times of 6 seconds were both controlled by programmed instrument time functions.
(§3) Calibrations were made by the external standard method using the internal data handling capabilities of the instrument. 100 ppm standards were prepared by dispensing 10 ul of the compounds into a serum bottle containing 100.0 g of chilled media analogous to experimental vials. Once the compound was completely dissolved, 2.00 g of the mixture was delivered by syringe to a headspace vial and sealed for subsequent headspace GC analysis.
(§4) Analysis of experimental vials was conducted by removing an aliquot by syringe and delivering 2.00 g to a headspace vial. Vials (6 ml) specified for use with the headspace analyzer were sealed using 19 mm TFE/silicone rubber septa and 20 mm crimp top seals (Alltech Associates, Deerfield, IL). A hand operated crimper was utilized.
The experiments were accomplished in 50 ml of minimal medium (mmo) that was modified. The modified minimal media (mmo) contained the sodium-potassium phosphate buffer at 0.06 M final concentration. The modified (mmo) was supplemented to a final concentration with 0.5% glucose, 0.005% yeast extract, 0.4% potassium nitrate and the volatile chloroaliphatic compound at 100 ppm. The flasks were inoculated with Pseudomonas fluorescens NRRL-B-18296 at 10^6 bacteria/ml. The remaining headspace in the vials was then filled with pure oxygen (approximately 60 ml) and sealed using 19 mm TFE/silicone rubber septa with 20mm crimp top seals. A hand operated crimper was utilized. The sealed vials were then shaken at 350 rpm on a New Brunswick gyrotary shaker (New Brunswick Scientific, Edison, NJ) at 25° C. for 24 hours.
Samples in triplicate (2.00 g) were removed after the 24 hour incubation. The samples were sealed in 6 ml vials and subjected to headspace analysis.
^1 values reported as percentage amounts of 100 ppm carbon source

Data set [2] shares this test system. Nature of the data set: Degradation of halogenated hydrocarbons by the strain (general statements). The format is cell-based.
The test system is the same in data set [3]. Nature of the data set: Growth on volatile chlorinated carbon sources (minimal media, vapor phase). The format is cell-based. Also noted: key: +: Growth; -: no growth. Conditions: 72 hours at 25° C., minimal media (mmo), carbon source in vapor phase of sealed container. Here is the method: ^1 Incubation was for 72 hours at 25° C. on minimal media
(mmo). Volatile carbon sources were supplied in the vapor phase of a
sealed container. +, Growth; -, no growth.

The test system is the same in data set [4]. The data set can be described thus: Degradation of a mixture of 1,2-dichloroethane and 1,2-dichloropropane, 0.1% glucose (Example 4). The format is cell-based. Particulars: for % degradation: mixture, 100 ppm each, 0.1% glucose, 0.4% potassium nitrate, 10^6 bacteria/ml, 25° C., 168 hours. Here is the method: as §1, §2, §3, §4
The potassium nitrate provides an assured oxygen source for this strain, since the degradations must be conducted under aerobic conditions.
^1 Experiments were accomplished in 100 ml minimal medium (mmo) supplemented with 0.1% glucose, 100 ppm of 1,2-dichloroethane, 100 ppm of 1,2-dichloropropane, and 0.4% potassium nitrate. The flasks were inoculated with Pseudomonas fluorescens NRRL-B-18296 at 10^6 bacteria/ml, sealed and shaken at 350 rpm on a New Brunswick gyrotary shaker (New Brunswick Scientific, Edison, NJ) at 25° C. for 168 hours. The shaking provides further oxygen to the medium.

Data set [5] shares this test system. Nature of the data set: Degradation of a mixture of 1,2-dichloroethane and 1,2-dichloropropane, 1.0% glucose (Example 5). The data set is classed as cell-based. Conditions: glucose concentration increased to 1.0%. Here is the method: as §1, §2, §3
Analysis of experimental vials was conducted by removing an aliquot by syringe and delivering 2.00 g to a headspace vial. Vials (6 ml) specified for use with the headspace analyzer were sealed using 19 mm TFE/silicone rubber septa and 20 mm crimp top seals (Alltech Associates, Deerfield, IL). […]

Data set [6] has the same test system. The data set can be described thus: Induction of degradation of 1,2-dichloroethane using various carbon sources (Example 6). The data set is classed as cell-based. The protocol:
as §1, §2
Calibrations were made by the external standard method using the internal data handling capabilities of the instrument. 100 ppm standards were prepared by dispensing 10 ul of the compounds into a serum bottle containing 100.0 g of chilled media analogous to experimental vials. Once the compound was completely dissolved, 2.00 g of the mixture was delivered by syringe to a headspace vial and sealed for subsequent headspace GC analysis. […]
Individual flasks were supplemented with the following carbon sources at 2mM: ethanol, sodium acetate, glucose, sodium succinate, sodium benzoate, ortho cresol or meta cresol. […] After incubation for 24 hours, the vials were analyzed directly on the headspace gas chromatograph.

A further data set relates to Acinetobacter sp. Particulars: induced by prior growth on phenol; Nelson et al.; cited from earlier work.
The conditions of data set [7]: formed by anaerobic methanogens; Bouwer 1983; cited from earlier work.

Values joined by “and” are separate entries in the source; they are usually repeats but may differ in a detail not shown here. Identical values can stand only once.

As to `CC(Cl)(Cl)Cl` [1,1,1-trichloroethane], the “% degradation” value in data set [1] turned out to be 0%. Besides, the “Degradation by the strain (in words)” value in data set [2] is listed as “not degraded”.

For `ClCC(Cl)Cl` [1,1,2-trichloroethane], in data set [3], the “Growth on carbon source” value is “+”. Moreover, in data set [1], the “% degradation” value is listed as 23%. The “Degradation by the strain (in words)” value in data set [2] is “can be degraded”.

Take `ClCCCl` [1,2-dichloroethane]: in data set [4], the “Degradation upon extended degradation and supplementing with more glucose” value is “substantially completely degraded”; the “% degradation” value is 23.3% and 23%. For the same compound, the “Growth on carbon source” value in data set [3] is given as “+”. Further, the “degradative rate, with respect to time” value in data set [5] is “increased”. Also, the “% degradation” value in data set [1] came out at 10%. For the same compound, the “Degradation by the strain (in words)” value in data set [2] is reported as “can be degraded”.

Consider `CC(Cl)CCl` (stereo not drawn) [1,2-dichloropropane], for which, in data set [4], the “Degradation upon extended degradation and supplementing with more glucose” value is given as “substantially completely degraded”. Moreover, the “% degradation” value was 32.1% and 32% in data set [4]; 3% in data set [1]. In addition, the “Growth on carbon source” value in data set [3] is reported as “+”. Besides, in data set [5], the “degradative rate, with respect to time” value is reported as “increased”. In data set [2], the “Degradation by the strain (in words)” value is recorded as “can be degraded”.

In the case of `ClCCCCl` [1,3-dichloropropane], in data set [3], the “Growth on carbon source” value is “-”. Also, the “% degradation” value in data set [1] is 0%.

Turning to `CC(C)(Cl)Cl` [2,2-dichloropropane], the “Growth on carbon source” value in data set [3] is given as “+”. The “% degradation” value in data set [1] is 7%. For the same compound, the “Degradation by the strain (in words)” value in data set [2] is “can be degraded”.

As for `ClC(Cl)(Cl)Cl` [Carbon tetrachloride], in data set [2], the “Degradation by the strain (in words)” value is given as “not degraded”.

For the compound `CC(O)C(=O)O` (stereo not drawn) [Sodium lactate], in data set [6] (20 mM sodium lactate pre-culture, 25° C., 24 hours), the “Suitability as carbon source for the strain” value was “effective carbon source”.

As to `ClCCl` [dichloromethane], the “Degradation by the strain (in words)” value in data set [2] is given as “not degraded”.

As for `O=C[C@H](O)[C@@H](O)[C@H](O)[C@H](O)CO` [glucose], the “Induction of degradation of 1,2-dichloroethane” value in data set [6] (short time period of degradation) is given as “best carbon source to induce the degradation of 1,2-dichloroethane”.

In the case of `ClC(Cl)=C(Cl)Cl` [tetrachloroethylene], the “Growth on carbon source” value in data set [3] was “-”. Also, in data set [1], the “% degradation” value worked out at 0%.

Take `ClC=C(Cl)Cl` [trichloroethylene]: the “Growth on carbon source” value in data set [3] is “+”. Moreover, the “% degradation” value in data set [1] was 2%. For the same compound, the “Degradation by the strain (in words)” value in data set [2] is listed as “can be degraded”. In addition, in the data set with Acinetobacter sp., the “aerobic metabolism (in words)” value is given as “aerobic metabolism”.

`C=CCl` [vinyl chloride]: in data set [7], the “toxicity relative to haloaliphatic hydrocarbons” value was “more toxic than the haloaliphatic hydrocarbons”.

The record behind these values is patent US4853334A, “Method for the degradation of volatile chlorinated aliphatic hydrocarbons using pseudomonas fluorescens” (Microlife Technics, Inc., priority 1988, dated 1989).
